Laboratory results: ChEMBL document CHEMBL6121052, “Design of ROS-Triggered Sesquiterpene Lactone SC Prodrugs as TrxR1 Covalent Inhibitors for the Treatment of Non-Small Cell Lung Cancer” (J Med Chem, 2025)
Calls of active or inactive are those of the source. The rule behind the calls is not given here.

Legend:
[1] = tested on: NCI-H1299; assay: Induction of apoptosis in human NCI-H1299 cells assessed as decrease in BCl-2 expression at upto 10 uM incubated for 24 hrs by Western blot analysis; type: functional, cell-based
[2] = tested on: A549; assay: Antiproliferative activity against human A549 cells assessed as decrease in EdU positive cells at 4 uM measured after 14 days by Hoechst 33342 staining based fluorescence microscopic analysis; type: functional, cell-based; details: time 14.0 day
[3] = Toxicity in BALB/c mouse assessed as kidney damage at 5 to 10 mg/kg, po administered every 2 days for 2 weeks by H and E staining based analysis; type: organism-based; details: in vivo, 336 h, dose 5-10 mg/kg
[4] = tested on: NCI-H1299; assay: Induction of apoptosis in human NCI-H1299 cells assessed as increase in green fluorescence intensity upto 10 uM by AO/EB staining based fluorescence microscopic analysis; type: functional, cell-based
[5] = tested on: NCI-H1299; assay: Induction of ferroptosis in human NCI-H1299 cells assessed as increase in intracellular LPO accumulation at 5 uM incubated for 24 hrs by flow cytometry analysis; type: functional, cell-based
[6] = tested on: NSCLC; assay: Downregulation of TrxR1 expression in human NSCLC cells; type: functional, cell-based
[7] = Tmax in male Sprague-Dawley rat at 10 mg/kg, iv measured upto 24 hrs by LC-MS/MS analysis; type: ADME, organism-based; details: in vivo
[8] = tested on: NCI-H1299; assay: Induction of morphological changes in human NCI-H1299 cells assessed as increase in number of contracted shapes upto 10 uM; type: functional, cell-based
[9] = tested on: A549; assay: Induction of apoptosis in human A549 cells assessed as chromatin condensation upto 10 uM by Hoechst 33258 staining based fluorescence microscopic analysis; type: functional, cell-based
[10] = tested on: NCI-H1299; assay: Antitumor activity against human NCI-H1299 cells xenografted in BALB/c mouse assessed as decrease in Ki-67 expression at 5 to 10 mg/kg, po administered every 2 days for 2 weeks by IHC analysis; type: functional, organism-based; details: dose 5-10 mg/kg
[11] = tested on: A549; assay: Induction of apoptosis in human A549 cells assessed as viable cells at 5 uM measured after 48 hrs by Annexin V/FITC staining based flow cytometric analysis (reference value: 90.8 %); type: functional; details: read-out: Activity
[12] = Volume of distribution at steady state in male Sprague-Dawley rat at 10 mg/kg, iv measured upto 24 hrs by LC-MS/MS analysis; type: ADME, organism-based; details: in vivo, read-out: Vdss
[13] = tested on: NCI-H1299; assay: Induction of apoptosis in human NCI-H1299 cells assessed as late apoptotic cells at 5 uM measured after 48 hrs by Annexin V/FITC staining based flow cytometric analysis (reference value: 1.96%); type: functional
[14] = tested on: A549; assay: Induction of apoptosis in human A549 cells assessed as viable cells at 10 uM measured after 48 hrs by Annexin V/FITC staining based flow cytometric analysis (reference value: 90.8 %); type: functional; details: read-out: Activity
[15] = tested on: A549; assay: Downregulation of TrxR1 level in human A549 cells upto 10 uM incubated for 24 hrs by Western blot analysis; type: functional, cell-based
[16] = tested on: A549; assay: Induction of apoptosis in human A549 cells assessed as viable cells at 2.5 uM measured after 48 hrs by Annexin V/FITC staining based flow cytometric analysis (reference value: 90.8 %); type: functional; details: read-out: Activity
[17] = tested on: NCI-H1299; assay: Cytotoxicity against human NCI-H1299 cells assessed as cell viability incubated for 48 hrs by MTT assay; type: functional, cell-based; details: NCI-H1299, 48 h
[18] = tested on: NCI-H1299; assay: Induction of apoptosis in human NCI-H1299 cells assessed as chromatin condensation upto 10 uM by Hoechst 33258 staining based fluorescence microscopic analysis; type: functional, cell-based
[19] = tested on: NCI-H1299; assay: Antitumor activity against human NCI-H1299 cells xenografted in BALB/c mouse assessed as decrease in TrxR1 expression at 5 to 10 mg/kg, po administered every 2 days for 2 weeks by IHC analysis; type: functional, organism-based; details: dose 5-10 mg/kg
[20] = tested on: A549; assay: Induction of ferroptosis in human A549 cells assessed as increase in intracellular LPO accumulation at 5 uM incubated for 24 hrs by flow cytometry analysis; type: functional, cell-based
[21] = tested on: A549; assay: Induction of apoptosis in human A549 cells assessed as necrotic cells at 5 uM measured after 48 hrs by Annexin V/FITC staining based flow cytometric analysis (reference value: 2.52 %); type: functional
[22] = tested on: NCI-H1299; assay: Induction of apoptosis in human NCI-H1299 cells assessed as necrotic cells at 10 uM measured after 48 hrs by Annexin V/FITC staining based flow cytometric analysis (reference value: 0.62%); type: functional
[23] = Clearance in male Sprague-Dawley rat at 10 mg/kg, iv measured upto 24 hrs by LC-MS/MS analysis; type: ADME, organism-based; details: in vivo
[24] = tested on: A549; assay: Induction of apoptosis in human A549 cells assessed as increase in green fluorescence intensity upto 10 uM by AO/EB staining based fluorescence microscopic analysis; type: functional, cell-based
[25] = tested on: A549; assay: Induction of apoptosis in human A549 cells assessed as late apoptotic cells at 10 uM measured after 48 hrs by Annexin V/FITC staining based flow cytometric analysis (reference value: 5.37%); type: functional
[26] = tested on: NCI-H1299; assay: Induction of apoptosis in human NCI-H1299 cells assessed as viable cells at 5 uM measured after 48 hrs by Annexin V/FITC staining based flow cytometric analysis (reference value: 96.3%); type: functional; details: read-out: Activity
[27] = tested on: A549; assay: Induction of ferroptosis in human A549 cells assessed as effect on SLC7A11 protein expression at 10 uM incubated for 24 hrs by Western blotting analysis; type: functional, cell-based
[28] = tested on: NCI-H1299; assay: Induction of apoptosis in human NCI-H1299 cells assessed as viable cells at 10 uM measured after 48 hrs by Annexin V/FITC staining based flow cytometric analysis (reference value: 96.3%); type: functional; details: read-out: Activity
[29] = Cmax in male Sprague-Dawley rat at 10 mg/kg, iv measured upto 24 hrs by LC-MS/MS analysis; type: ADME, organism-based; details: in vivo
[30] = tested on: NCI-H1299; assay: Induction of apoptosis in human NCI-H1299 cells assessed as late apoptotic cells at 2.5 uM measured after 48 hrs by Annexin V/FITC staining based flow cytometric analysis (reference value: 1.96%); type: functional
[31] = Toxicity in BALB/c mouse assessed as spleen damage at 5 to 10 mg/kg, po administered every 2 days for 2 weeks by H and E staining based analysis; type: organism-based; details: in vivo, 336 h, dose 5-10 mg/kg
[32] = tested on: A549; assay: Induction of apoptosis in human A549 cells assessed as increase in Bax expression at upto 10 uM incubated for 24 hrs by Western blot analysis; type: functional, cell-based

CCCNC(=O)O[C@@H]1/C=C(\C)C[C@H]2C=C(C[C@@H]3OC(=O)[C@H](CSC(=S)N(C)C)[C@H]31)C(=O)O2
Activity [1]: Active | Activity [2]: Active | Activity [3]: Non-toxic | Activity [4]: Active | Activity [5]: Active | Activity [6]: Active | Tmax [7]: 1.98 min | Activity [8]: Active | Activity [9]: Active | Activity [10]: Active | viability at 5 µM [11]: 77.8% | Vd [12]: 57.6 L/kg | Activity [13]: 15.6% | viability at 10 µM [14]: 68.8% | Activity [15]: Active | viability at 2.5 µM [16]: 87.7% | IC50 [17]: 4.68 µM | Activity [18]: Active | Activity [19]: Active | Activity [20]: Active | Activity [21]: 3.5% | Activity [22]: 1.01% | clearance [23]: 162 mL/min/kg | Activity [24]: Active | Activity [25]: 24.3% | viability at 5 µM [26]: 72.7% | Activity [27]: Active | viability at 10 µM [28]: 68.6% | Cmax [29]: 2310 ng/mL | Activity [30]: 7.41% | Activity [31]: Non-toxic | Activity [32]: Active
